Experimental data reported in ChEMBL document CHEMBL1152382, “Synthesis of novel quinoxaline derivatives and its cytotoxic activities” (Bioorg Med Chem Lett, 2009).

Assay: Cytotoxicity against human HeLaS3 cells after 48 hrs by MTT assay
Assay type: functional, cell-based
Settings: HeLa S3, 48 h

SMILES | IC50 [µM]
O=C1Nc2cc([N+](=O)[O-])ccc2N2CCCCC12 (stereo not given) | > 30
O=C1Nc2ccccc2N2CCCC12 (stereo not given) | > 30
CC1(C)Nc2ccccc2NC1=O | > 30
Cc1ccc2c(c1)N1CCCCC1C(=O)N2 (stereo not given) | 18.1
N#Cc1ccc2c(c1)N1CCCCC1C(=O)N2 (stereo not given) | 7.6
CC(C)C1Nc2ccccc2NC1=O (stereo not given) | 4.85
O=C1Nc2cc(OC(F)(F)F)ccc2N2CCCCC12 (stereo not given) | > 30
O=C1Nc2ccccc2NC12CCCCC2 | > 30
CC(C)(C)C1Nc2ccccc2NC1=O (stereo not given) | > 30
Cc1cnc2c(c1)N1CCCCC1C(=O)N2 (stereo not given) | > 30
O=C1Nc2cccnc2N2CCCCC12 (stereo not given) | > 30
O=C1Nc2ccccc2N2Cc3ccccc3CC12 (stereo not given) | > 30
CCC(C)C1Nc2cc(Cl)ccc2NC1=O (stereo not given) | 17.2
O=C1Nc2ccccc2NC1Cc1ccccc1 (stereo not given) | > 30
O=C1Nc2ccc(Cl)cc2N2CCCCC12 (stereo not given) | 4.96
